Measurements from patent US20100267561A1, “HERBICIDAL PYRIDAZINONE DERIVATIVES” (priority 2007, published 2010).

How the values were obtained:
Format in all cases: in vivo
[1] = system: large crabgrass (Digitaria sanguinalis); test: Test A pre-/postemergence plant response
Method in brief: (§1)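 Seeds were planted in blended loam soil and sand, then treated preemergence by directed soil spray. At that time, emerged plants (one- to two-leaf, 2–10 cm) received postemergence applications of the same surfactant-containing formulation. Injury was assessed visually on a 0–100 scale after approximately 10 days.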

[2] = system: barnyardgrass (Echinochloa crus-galli); test: Test A pre-/postemergence plant response
Method in brief: as §1

[3] = system: pigweed (Amaranthus retroflexus); test: Test A pre-/postemergence plant response
Method in brief: as §1

[4] = system: corn (Zea mays); test: Test A pre-/postemergence plant response
Method in brief: as §1

[5] = system: bermudagrass (Cynodon dactylon); test: Test B pre-/postemergence plant response; conditions: for Bermudagrass plant response rating: 8 g ai/ha
Method in brief: (§2)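 Seeds were sown and sprayed preemergence, while plants at 2 to 18 cm (1- to 4-leaf stage) got postemergence sprays. Compounds were formulated in a non-phytotoxic solvent mixture with surfactant. After 13 to 15 days in a greenhouse, injury was rated visually against untreated controls, 0 (no effect) to 100 (complete control).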

[6] = system: johnsongrass (Sorghum halepense); test: Test B pre-/postemergence plant response
Method in brief: as §2

[7] = system: Italian ryegrass (Lolium multiflorum); test: Test B pre-/postemergence plant response
Method in brief: as §2

[8] = system: canarygrass (Phalaris minor); test: Test B postemergence plant response; conditions: for Plant response rating, Canarygrass: Postemergence
Protocol: (§3) At the same time, plants selected from these crop and weed species and also winter barley (Hordeum vulgare), canarygrass (Phalaris minor), chickweed (Stellaria media) and windgrass (Apera spica-venti) were treated with postemergence applications of some of the test chemicals formulated in the same manner. Plants ranged in height from 2 to 18 cm (1- to 4-leaf stage) for postemergence treatments.
(§4) Plant species in the flooded paddy test consisted of rice (Oryza sativa), umbrella sedge (Cyperus difformis), ducksalad (Heteranthera limosa) and barnyardgrass (Echinochloa crus-galli) grown to the 2-leaf stage for testing. At time of treatment, test pots were flooded to 3 cm above the soil surface, treated by application of test compounds directly to the paddy water, and then maintained at that water depth for the duration of the test. Treated plants and controls were maintained in a greenhouse for 13 to 15 days, after which time all species were compared to controls and visually evaluated. Plant response ratings, summarized in Table B, are based on a scale of 0 to 100 where 0 is no effect and 100 is complete control. A dash (-) response means no test result.

[9] = system: winter barley (Hordeum vulgare); test: Test B postemergence plant response; conditions: for Barley plant response rating: 8 g ai/ha, postemergence, 0-100 scale; for Plant response rating, Barley: Postemergence, scale 0 to 100, 0 no effect, 100 complete control
Protocol: as §3, §4

[10] = system: chickweed (Stellaria media); test: Test B postemergence plant response; conditions: for Chickweed plant response rating: 8 g ai/ha, postemergence, 0-100 scale; for Plant response rating, Chickweed: Postemergence
Protocol: as §3, §4

[11] = system: windgrass (Apera spica-venti); test: Test B postemergence plant response; conditions: for Windgrass plant response rating: postemergence, 0-100 scale; for Plant response rating, Windgrass: Postemergence
Protocol: as §3, §4

[12] = Postemergence, 31 g ai/ha, 0 to 100 scale, 0 no effect, 100 complete control
[13] = Postemergence, 125 g ai/ha, 0 to 100 scale, 0 no effect, 100 complete control
[14] = Preemergence, 31 g ai/ha, 0 to 100 scale, 0 is no effect, 100 is complete control
[15] = Preemergence, 125 g ai/ha, 0 to 100 scale (0 no effect, 100 complete control)
[16] = Postemergence, 16 g ai/ha, scale 0 to 100
[17] = Postemergence, 31 g ai/ha, scale 0 to 100
[18] = Postemergence, 62 g ai/ha, scale 0 to 100, 0 no effect, 100 complete control
[19] = Preemergence, scale 0 to 100 (0 no effect, 100 complete control)
[20] = Preemergence, 16 g ai/ha, scale 0 to 100 (0 no effect, 100 complete control)
[21] = Preemergence, 31 g ai/ha, scale 0 to 100 (0 no effect, 100 complete control)
[22] = Preemergence, 62 g ai/ha, 0 to 100 scale, 0 no effect, 100 complete control
[23] = 8 g ai/ha, postemergence, 0-100 scale
[24] = 16 g ai/ha, postemergence, 0-100 scale
[25] = Preemergence, 8 g ai/ha, scale 0 to 100
[26] = Preemergence, 16 g ai/ha, scale 0 to 100
[27] = 62 g ai/ha, scale 0 to 100, 0 no effect, 100 complete control

Compound: CCc1cc(-c2ccc(Br)cc2)nn1-c1c(O)c(C)nn(C)c1=O [Compound 74]
- Plant response rating, Crabgrass, Large [1, 12]: 60
- Plant response rating, Crabgrass, Large [1, 13]: 100
- Plant response rating, Crabgrass, Large [1, 14]: 50
- Plant response rating, Crabgrass, Large [1, 15]: 90
- Plant response rating, Barnyardgrass [2, 12]: 100
- Plant response rating, Barnyardgrass [2, 13]: 100
- Plant response rating, Barnyardgrass [2, 14]: 100
- Plant response rating, Barnyardgrass [2, 15]: 100
- Plant response rating, Pigweed [3, 12]: 0
- Plant response rating, Pigweed [3, 13]: 0
- Plant response rating, Pigweed [3, 14]: 0
- Plant response rating, Pigweed [3, 15]: 0
- Plant response rating, Corn [4, 12]: 60
- Plant response rating, Corn [4, 13]: 100
- Plant response rating, Corn [4, 15]: 60
- Bermudagrass plant response rating ([5]; postemergence, 0-100 scale): 20
- Plant response rating, Bermudagrass [5, 16]: 85
- Plant response rating, Bermudagrass [5, 17]: 95
- Plant response rating, Bermudagrass [5, 18]: 98
- Bermudagrass plant response rating [5, 19]: 100
- Plant response rating, Bermudagrass [5, 20]: 100
- Plant response rating, Bermudagrass [5, 21]: 100
- Plant response rating, Bermudagrass [5, 22]: 100
- Johnsongrass plant response rating [6, 23]: 98
- Johnsongrass plant response rating [6, 24]: 98
- Plant response rating, Johnsongrass [6, 17]: 100
- Plant response rating, Johnsongrass [6, 18]: 100
- Plant response rating, Johnsongrass [6, 21]: 90
- Plant response rating, Johnsongrass [6, 22]: 100
- Johnsongrass plant response rating [6, 25]: 70
- Johnsongrass plant response rating [6, 26]: 85
- Ryegrass, Italian plant response rating [7, 23]: 98
- Ryegrass, Italian plant response rating [7, 24]: 100
- Plant response rating, Ryegrass, Italian [7, 17]: 100
- Plant response rating, Ryegrass, Italian [7, 18]: 100
- Plant response rating, Ryegrass, Italian [7, 21]: 100
- Plant response rating, Ryegrass, Italian [7, 22]: 100
- Ryegrass, Italian plant response rating [7, 25]: 60
- Ryegrass, Italian plant response rating [7, 26]: 98
- Canarygrass plant response rating [8, 23]: 80
- Plant response rating, Canarygrass ([8]; 16 g ai/ha, scale 0 to 100): 90
- Plant response rating, Canarygrass ([8]; 31 g ai/ha, scale 0 to 100): 100
- Plant response rating, Canarygrass [8, 27]: 100
- Barley plant response rating [9]: 20
- Plant response rating, Barley ([9]; 16 g ai/ha): 40
- Plant response rating, Barley ([9]; 31 g ai/ha): 95
- Plant response rating, Barley ([9]; 62 g ai/ha): 95
- Chickweed plant response rating [10]: 0
- Plant response rating, Chickweed ([10]; 16 g ai/ha, scale 0 to 100): 0
- Plant response rating, Chickweed ([10]; 31 g ai/ha, scale 0 to 100): 0
- Plant response rating, Chickweed [10, 27]: 0
- Windgrass plant response rating ([11]; 8 g ai/ha): 85
- Windgrass plant response rating ([11]; 16 g ai/ha): 90
- Plant response rating, Windgrass ([11]; 31 g ai/ha, scale 0 to 100): 100
- Plant response rating, Windgrass [11, 27]: 100

Compound: CCCc1cc(-c2ccc(C(F)(F)F)cc2)nn1-c1c(O)cnn(C)c1=O [Compound 72]
- Plant response rating, Crabgrass, Large [1, 12]: 20
- Plant response rating, Crabgrass, Large [1, 13]: 90
- Plant response rating, Crabgrass, Large [1, 14]: 0
- Plant response rating, Crabgrass, Large [1, 15]: 60
- Plant response rating, Barnyardgrass [2, 12]: 50
- Plant response rating, Barnyardgrass [2, 13]: 100
- Plant response rating, Barnyardgrass [2, 14]: 20
- Plant response rating, Barnyardgrass [2, 15]: 90
- Plant response rating, Pigweed [3, 12]: 0
- Plant response rating, Pigweed [3, 13]: 0
- Plant response rating, Pigweed [3, 14]: 0
- Plant response rating, Pigweed [3, 15]: 0
- Plant response rating, Corn [4, 12]: 80
- Plant response rating, Corn [4, 13]: 100
- Plant response rating, Corn [4, 14]: 20
- Plant response rating, Corn [4, 15]: 50
- Bermudagrass plant response rating ([5]; postemergence, 0-100 scale): 0
- Plant response rating, Bermudagrass [5, 16]: 50
- Plant response rating, Bermudagrass [5, 17]: 60
- Plant response rating, Bermudagrass [5, 18]: 80
- Bermudagrass plant response rating [5, 19]: 40
- Plant response rating, Bermudagrass [5, 20]: 100
- Plant response rating, Bermudagrass [5, 21]: 100
- Plant response rating, Bermudagrass [5, 22]: 100
- Johnsongrass plant response rating [6, 23]: 70
- Johnsongrass plant response rating [6, 24]: 75
- Plant response rating, Johnsongrass [6, 18]: 100
- Plant response rating, Johnsongrass [6, 21]: 95
- Plant response rating, Johnsongrass [6, 22]: 100
- Johnsongrass plant response rating [6, 25]: 50
- Johnsongrass plant response rating [6, 26]: 55
- Ryegrass, Italian plant response rating [7, 23]: 80
- Ryegrass, Italian plant response rating [7, 24]: 100
- Plant response rating, Ryegrass, Italian [7, 17]: 100
- Plant response rating, Ryegrass, Italian [7, 18]: 100
- Plant response rating, Ryegrass, Italian [7, 21]: 100
- Plant response rating, Ryegrass, Italian [7, 22]: 100
- Ryegrass, Italian plant response rating [7, 25]: 75
- Ryegrass, Italian plant response rating [7, 26]: 90
- Plant response rating, Canarygrass ([8]; 16 g ai/ha, scale 0 to 100): 30
- Plant response rating, Canarygrass ([8]; 31 g ai/ha, scale 0 to 100): 30
- Plant response rating, Canarygrass [8, 27]: 95
- Barley plant response rating [9]: 0
- Plant response rating, Barley ([9]; 16 g ai/ha): 0
- Plant response rating, Barley ([9]; 31 g ai/ha): 0
- Plant response rating, Barley ([9]; 62 g ai/ha): 95
- Chickweed plant response rating [10]: 0
- Plant response rating, Chickweed ([10]; 16 g ai/ha, scale 0 to 100): 0
- Plant response rating, Chickweed ([10]; 31 g ai/ha, scale 0 to 100): 0
- Plant response rating, Chickweed [10, 27]: 0
- Windgrass plant response rating ([11]; 8 g ai/ha): 85
- Windgrass plant response rating ([11]; 16 g ai/ha): 100
- Plant response rating, Windgrass ([11]; 31 g ai/ha, scale 0 to 100): 100
- Plant response rating, Windgrass [11, 27]: 100
